From patent US11690396B2, “Electronic cigarette compositions, devices, and related methods” (ZANOPRIMA LIFESCIENCES LIMITED, priority 2018, dated 2023)
≈ marks a conversion by molar mass, not a printed value.

What was measured:
[1] = Solubility of carbon dioxide in nicotine solutions (Example 3, weight change); format: physicochemical
Method: Into weighed plastic 500 ml bottles containing approximately 50 g of a solution of nicotine in glycerol/propylene glycol according to Table 3 were added 4-5 g solid carbon dioxide (dry-ice), sufficient to raise the pressure to 4-5 bar. The mixtures were held under pressure for 3 days before the pressure was released, and the mixtures were then stood at ambient temperature for 48 hours and then the new weight of the solution measured. The change in weight before and after addition of the CO2 enable the amount of CO2 incorporated into the solution to be derived, as well as the molar ratio of CO2 to nicotine.

[2] = Solubility of carbon dioxide in nicotine solutions with low propylene glycol (Example 5); format: physicochemical; conditions: for Added CO2: ~50.0 g solution, average of two experiments
From the text: Using the same methodology as that of Example 3, solutions of nicotine in glycerol, nicotine, water, and propylene glycol (if present) were made as detailed in the Table 4. In Table 4, propylene glycol is referred to as “PG”. The propylene glycol, when present, originated from the addition of a tobacco flavouring composition. The tobacco flavouring composition, referred to in Table 4 as “TF”, (made up of tobacco flavouring dissolved/dispersed in propylene glycol) included propylene glycol at 65% by weight. […] For each experiment, the solution used was within 0.2 g of 50.0 g. As with Example 3, the solutions were weighed before and after the addition of the CO2, and the change in weight before and after addition of the CO2 enabled the amount of CO2 incorporated into the solution to be derived. The amount of carbon dioxide reported as being incorporated into solution is the average result achieved across two experiments.

[3] = glycerol 78.3, nicotine 5, water 8.7, TF 8, PG 5.2 wt %
[4] = glycerol 81, nicotine 2, water 9, TF 8, PG 5.2 wt %
[5] = glycerol 82.65, nicotine 5, water 4.35, TF 8, PG 5.2 wt %
[6] = glycerol 85.5, nicotine 2, water 4.5, TF 8, PG 5.2 wt %
[7] = glycerol 85.5, nicotine 5, water 9.5, TF 0, PG 0 wt %
[8] = glycerol 88.2, nicotine 2, water 9.8, TF 0, PG 0 wt %
[9] = glycerol 90.25, nicotine 5, water 4.75, TF 0, PG 0 wt %
[10] = glycerol 93.1, nicotine 2, water 4.9, TF 0, PG 0 wt %

## O=C=O [CO2, carbon dioxide]
[1]; 70:30 glycerol:propylene glycol, nicotine 0 g/kg, 4-5 bar 3 days, then 48 h ambient
  Solubility CO2: 3.8 g/kg
[1]; 70:30 glycerol:propylene glycol, nicotine 0 g/kg, 50.00 g solution, 4-5 bar 3 days, then 48 h ambient
  Added CO2: 0.19 g
[1]; 70:30 glycerol:propylene glycol, nicotine 0 g/kg, estimated density 1.19 kg/L
  Solubility CO2: 4.5 mg/mL (≈ 102 mM)
[1]; 70:30 glycerol:propylene glycol, nicotine 4 g/kg (0.4%)
  Molar ratio CO2/nicotine: 8.77 mol/mol
[1]; 70:30 glycerol:propylene glycol, nicotine 4 g/kg (0.4%), 49.96 g solution, average of two results
  Added CO2: 0.48 g
[1]; 70:30 glycerol:propylene glycol, nicotine 4 g/kg (0.4%), average of two results
  Solubility CO2: 9.5 g/kg
[1]; 70:30 glycerol:propylene glycol, nicotine 4 g/kg (0.4%), estimated density 1.19 kg/L
  Solubility CO2: 11.3 mg/mL (≈ 257 mM)
[1]; comparative: 20 g pure nicotine charged similarly with carbon dioxide
  weight increase (CO2 incorporated): did not result in any weight increase at all
[2]; [3]
  Solubility of CO2: 13 g/kg
  Added CO2: 0.66 g
[2]; glycerol 78.3, nicotine 5, water 8.7, TF 8, PG 5.2 wt %, estd density 1.21 kg/l
  Solubility of CO2: 16 mg/mL
[2]; [4]
  Solubility of CO2: 12 g/kg
  Added CO2: 0.58 g
[2]; glycerol 81, nicotine 2, water 9, TF 8, PG 5.2 wt %, estd density 1.21 kg/l
  Solubility of CO2: 14 mg/mL
[2]; [5]
  Solubility of CO2: 16 g/kg
  Added CO2: 0.79 g
[2]; glycerol 82.65, nicotine 5, water 4.35, TF 8, PG 5.2 wt %, estd density 1.22 kg/l
  Solubility of CO2: 19 mg/mL
[2]; [6]
  Solubility of CO2: 11 g/kg
  Added CO2: 0.54 g
[2]; glycerol 85.5, nicotine 2, water 4.5, TF 8, PG 5.2 wt %, estd density 1.23 kg/l
  Solubility of CO2: 13 mg/mL
[2]; [7]
  Solubility of CO2: 16 g/kg
  Added CO2: 0.82 g
[2]; glycerol 85.5, nicotine 5, water 9.5, TF 0, PG 0 wt %, estd density 1.22 kg/l
  Solubility of CO2: 20 mg/mL
[2]; [8]
  Solubility of CO2: 11 g/kg
  Added CO2: 0.56 g
[2]; glycerol 88.2, nicotine 2, water 9.8, TF 0, PG 0 wt %, estd density 1.23 kg/l
  Solubility of CO2: 14 mg/mL
[2]; [9]
  Solubility of CO2: 18 g/kg
  Added CO2: 0.91 g
[2]; glycerol 90.25, nicotine 5, water 4.75, TF 0, PG 0 wt %, estd density 1.24 kg/l
  Solubility of CO2: 23 mg/mL
[2]; [10]
  Solubility of CO2: 10 g/kg
  Added CO2: 0.51 g
[2]; glycerol 93.1, nicotine 2, water 4.9, TF 0, PG 0 wt %, estd density 1.25 kg/l
  Solubility of CO2: 13 mg/mL
